Test results taken from the supplement of paper PMC10307832.

Tests used:
Assay in all cases: relative viability (nuclei count vs DMSO), 5 days (fraction); higher = more cells survive
[1] = compound: COC1=CC=C(C=C1)CN2C=CC3=C2C=C(C=C3)C(=O)NO + CCNC(=O)c1noc(-c2cc(C(C)C)c(O)cc2O)c1-c1ccc(CN2CCOCC2)cc1 [Luminespib] (partner 0.01 µM)
Summary of the method: (§1)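 A single step with final 0.05% Triton X-100, 1% formaldehyde and 1 ug/ml Hoechst fixed the cells and stained nuclei 5 days after treatment. Lung cancer cell lines in 1536-well plates had been treated by pin tool the day after seeding with one drug alone or a fixed anchor-drug dose plus five library-drug doses (not always all listed) in √10 steps, and nuclei were counted on 4× images. Relative viability is the ratio of nuclei in treated wells to nuclei in vehicle wells, taken as the median of duplicate plates.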

[2] = compound: COC1=CC=C(C=C1)CN2C=CC3=C2C=C(C=C3)C(=O)NO + Nc1nc2[nH]cc(CCc3ccc(C(=O)N[C@@H](CCC(=O)O)C(=O)O)cc3)c2c(=O)[nH]1 [Pemetrexed] (partner 0.2 µM)
Summary of the method: as §1

[3] = compound: C[C@]1(c2nc3c(C(N)=O)cccc3[nH]2)CCCN1 [Veliparib] + COc1cccc2cc(-c3nc([C@H]4CC[C@H](C(=O)O)CC4)n4ncnc(N)c34)[nH]c12 [OSI-027] (partner 0.5 µM)
Summary of the method: as §1

[4] = compound: COC1=CC=C(C=C1)CN2C=CC3=C2C=C(C=C3)C(=O)NO + C[C@@H](Oc1cc(-c2cnn(C3CCNCC3)c2)cnc1N)c1c(Cl)ccc(F)c1Cl [Crizotinib] (partner 1 µM)
Summary of the method: as §1

Row | Cell Line | relative viability ([1]; first compound 0.08 µM) | relative viability ([1]; first compound 0.253 µM) | relative viability ([1]; first compound 0.8 µM) | relative viability ([1]; first compound 2.53 µM) | relative viability ([1]; first compound 8 µM) | relative viability ([2]; first compound 0.08 µM) | relative viability ([2]; first compound 0.253 µM) | relative viability ([2]; first compound 0.8 µM) | relative viability ([2]; first compound 2.53 µM) | relative viability ([2]; first compound 8 µM) | relative viability ([3]; first compound 0.02 µM) | relative viability ([3]; first compound 0.06325 µM) | relative viability ([3]; first compound 0.2 µM) | relative viability ([3]; first compound 0.6325 µM) | relative viability ([3]; first compound 2 µM) | relative viability ([4]; first compound 0.08 µM) | relative viability ([4]; first compound 0.253 µM) | relative viability ([4]; first compound 0.8 µM) | relative viability ([4]; first compound 2.53 µM) | relative viability ([4]; first compound 8 µM)
1 | NCI-H1915 | 0.646 | 0.812 | 0.885 | 0.84 | 0.768 | 0.441 | 0.527 | 0.49 | 0.485 | 0.447 | 0.587 | 0.616 | 0.545 | 0.567 | 0.574 | 0.777 | 0.892 | 0.935 | 0.905 | 0.857
2 | NCI-H1944 | – | 0.788 | 0.791 | 0.748 | 0.728 | – | 0.63 | 0.568 | 0.705 | 0.527 | 0.439 | 0.363 | 0.394 | 0.349 | 0.384 | – | 1.18 | 1.1 | 1.09 | 1.08
3 | NCI-H1975 | 0.26 | 0.238 | 0.281 | 0.262 | 0.114 | 0.288 | 0.294 | 0.299 | 0.291 | 0.286 | 0.715 | 0.674 | 0.676 | 0.677 | 0.68 | 0.915 | 1.04 | 0.955 | 0.948 | 0.871
4 | NCI-H1993 | 0.57 | 0.812 | 1.09 | 0.826 | 0.845 | 0.542 | 0.529 | 0.648 | 0.603 | 0.549 | 0.592 | 0.531 | 0.562 | 0.585 | 0.51 | 0.698 | 0.919 | 0.803 | 0.901 | 0.881
5 | NCI-H2009 | 1.04 | 1.04 | 1 | 1.02 | 0.933 | 1.05 | 1.12 | 1 | 0.983 | 1.1 | 0.63 | 0.645 | 0.672 | 0.586 | 0.672 | 1.02 | 0.993 | 0.995 | 0.967 | 1.06
6 | NCI-H2023 | 0.67 | 0.885 | 0.724 | 0.586 | 0.553 | 0.23 | 0.199 | 0.207 | 0.208 | 0.209 | 0.339 | 0.398 | 0.442 | 0.347 | 0.432 | 0.625 | 0.586 | 0.728 | 0.652 | 0.59
7 | NCI-H2085 | 0.392 | 0.413 | 0.409 | 0.447 | 0.471 | 1.07 | 0.951 | 1.02 | 0.941 | 0.948 | – | 0.721 | 0.629 | 0.713 | 0.675 | 0.804 | 0.944 | 0.853 | 0.928 | 0.926
8 | NCI-H2087 | 0.131 | 0.165 | 0.193 | 0.208 | 0.132 | 0.575 | 0.56 | 0.669 | 0.599 | 0.535 | 0.303 | 0.475 | 0.504 | 0.456 | 0.539 | 0.819 | 0.842 | 0.993 | 0.913 | 0.767
9 | NCI-H2126 | 0.839 | 0.967 | 0.944 | 0.917 | 0.881 | 0.669 | 0.73 | 0.672 | 0.706 | 0.649 | 0.647 | 0.608 | 0.747 | 0.749 | 0.679 | 1.02 | 1.08 | 1.04 | 1.03 | 1.06
10 | NCI-H2170 | 0.566 | 0.748 | 0.549 | 0.833 | 0.589 | 0.276 | 0.268 | 0.266 | 0.26 | 0.235 | 0.771 | 0.748 | 0.741 | 0.683 | 0.617 | 0.938 | 1.19 | 1.17 | 1.26 | 1.12
11 | NCI-H2228 | – | 0.193 | 0.179 | 0.142 | 0.13 | 0.311 | 0.347 | 0.336 | 0.343 | 0.298 | 0.529 | 0.569 | 0.56 | 0.486 | 0.551 | 0.45 | 0.549 | 0.535 | 0.492 | 0.423
12 | NCI-H2347 | 0.361 | 0.383 | 0.396 | 0.552 | 0.501 | 0.399 | 0.44 | 0.405 | 0.473 | 0.453 | 0.416 | 0.377 | 0.473 | 0.206 | 0.347 | 0.666 | 0.7 | 0.856 | 0.672 | 0.655
13 | NCI-H2405 | 0.59 | 0.689 | 0.77 | 0.679 | 0.583 | 0.979 | – | 1.02 | 1.03 | 0.948 | 0.547 | 0.595 | 0.619 | 0.654 | 0.365 | 0.649 | 0.865 | 0.87 | 0.925 | 0.819
14 | NCI-H3122 | 0.0872 | 0.107 | 0.141 | 0.0763 | 0.0869 | 0.2 | 0.208 | 0.195 | 0.209 | 0.193 | 0.829 | 0.923 | 0.935 | 0.96 | 0.991 | 0.266 | 0.275 | 0.292 | 0.317 | 0.284
15 | PC-3 [JPC-3] | 0.797 | 0.746 | 0.655 | 0.729 | 0.753 | 1.04 | – | 1.14 | 1.21 | 1.12 | 0.773 | 0.74 | 0.813 | 0.755 | 0.755 | 0.969 | 1.02 | 1.02 | 1.05 | 0.965
16 | PC-14 | – | – | 0.184 | 0.14 | 0.134 | 0.107 | 0.132 | 0.14 | 0.135 | 0.152 | 0.292 | 0.774 | 0.82 | 0.743 | 0.866 | 0.675 | 0.898 | 0.908 | 0.924 | 0.809
